What all share (assay): relative viability (nuclei count vs DMSO), 5 days (fraction); higher = more cells survive
Compound in the experiment “Vemurafenib + Trametinib”: CCCS(=O)(=O)Nc1ccc(F)c(C(=O)c2c[nH]c3ncc(-c4ccc(Cl)cc4)cc23)c1F [Vemurafenib] + CC(=O)Nc1cccc(-n2c(=O)n(C3CC3)c(=O)c3c(Nc4ccc(I)cc4F)n(C)c(=O)c(C)c32)c1 [Trametinib] (partner 0.02 µM)
The gist of the method: (§1)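 Lung cancer cell lines in 1536-well plates got either a single drug or a fixed anchor-drug dose together with five library-drug doses (not always all listed) in √10 steps, by pin tool, on the day after seeding. Nuclei were counted after 5 days, and relative viability is the treated-to-vehicle ratio of nuclei counts. Values are medians of duplicate plates.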

Compound in the experiment “OSI-027 + Alpelisib”: COc1cccc2cc(-c3nc([C@H]4CC[C@H](C(=O)O)CC4)n4ncnc(N)c34)[nH]c12 [OSI-027] + Cc1nc(NC(=O)N2CCC[C@H]2C(N)=O)sc1-c1ccnc(C(C)(C)C(F)(F)F)c1 [Alpelisib] (partner 2 µM)
The gist of the method:
as §1

Compound in the experiment “Alpelisib + Luminespib”: Cc1nc(NC(=O)N2CCC[C@H]2C(N)=O)sc1-c1ccnc(C(C)(C)C(F)(F)F)c1 [Alpelisib] + CCNC(=O)c1noc(-c2cc(C(C)C)c(O)cc2O)c1-c1ccc(CN2CCOCC2)cc1 [Luminespib] (partner 0.01 µM)
The gist of the method:
as §1

Compound in the experiment “Alpelisib + Lapatinib”: Cc1nc(NC(=O)N2CCC[C@H]2C(N)=O)sc1-c1ccnc(C(C)(C)C(F)(F)F)c1 [Alpelisib] + CS(=O)(=O)CCNCc1ccc(-c2ccc3ncnc(Nc4ccc(OCc5cccc(F)c5)c(Cl)c4)c3c2)o1 [Lapatinib] (partner 2 µM)
The gist of the method:
as §1

As to NCI-H1734, the relative viability with Vemurafenib + Trametinib (first compound 0.03162 µM) turned out to be 0.655; with Vemurafenib + Trametinib (first compound 0.1 µM) it was 0.641; with Vemurafenib + Trametinib (first compound 0.3162 µM), 0.66; with Vemurafenib + Trametinib (first compound 1 µM), 0.643; in the experiment with OSI-027 + Alpelisib (first compound 0.01 µM), 0.642; in the experiment with OSI-027 + Alpelisib (first compound 0.03162 µM), 0.694. The relative viability in the experiment with OSI-027 + Alpelisib (first compound 0.1 µM) amounted to 0.63; with OSI-027 + Alpelisib (first compound 0.3162 µM), 0.517; in the experiment with OSI-027 + Alpelisib (first compound 1 µM) it was 0.259; with Alpelisib + Luminespib (first compound 0.04 µM) it was 0.19; with Alpelisib + Luminespib (first compound 0.4 µM) it was 0.18; in the experiment with Alpelisib + Luminespib (first compound 1.265 µM), 0.183. In addition, the relative viability with Alpelisib + Luminespib (first compound 4 µM) is 0.167; with Alpelisib + Lapatinib (first compound 0.04 µM), 1.09; with Alpelisib + Lapatinib (first compound 0.1265 µM), 0.989; with Alpelisib + Lapatinib (first compound 0.4 µM) it was 1.11; with Alpelisib + Lapatinib (first compound 1.265 µM), 0.771; in the experiment with Alpelisib + Lapatinib (first compound 4 µM), 0.373.
As to NCI-H358, the relative viability with Vemurafenib + Trametinib (first compound 0.03162 µM) worked out at 0.155; with Vemurafenib + Trametinib (first compound 0.1 µM), 0.119; in the experiment with Vemurafenib + Trametinib (first compound 0.3162 µM), 0.15; in the experiment with Vemurafenib + Trametinib (first compound 1 µM), 0.175; in the experiment with OSI-027 + Alpelisib (first compound 0.01 µM), 0.98; with OSI-027 + Alpelisib (first compound 0.03162 µM), 0.774. In addition, the relative viability was 0.757 in the experiment with OSI-027 + Alpelisib (first compound 0.1 µM); 0.478 with OSI-027 + Alpelisib (first compound 0.3162 µM); 0.297 with OSI-027 + Alpelisib (first compound 1 µM); 0.29 with Alpelisib + Luminespib (first compound 0.04 µM); 0.23 with Alpelisib + Luminespib (first compound 0.1265 µM); 0.32 with Alpelisib + Luminespib (first compound 0.4 µM). Besides, the relative viability with Alpelisib + Luminespib (first compound 1.265 µM) amounted to 0.252; with Alpelisib + Luminespib (first compound 4 µM), 0.215; with Alpelisib + Lapatinib (first compound 0.04 µM), 0.442; with Alpelisib + Lapatinib (first compound 0.1265 µM), 0.382; with Alpelisib + Lapatinib (first compound 0.4 µM) it was 0.389; in the experiment with Alpelisib + Lapatinib (first compound 1.265 µM) it was 0.297. The relative viability with Alpelisib + Lapatinib (first compound 4 µM) worked out at 0.368.
For the cell line NCI-H650, the relative viability with Vemurafenib + Trametinib (first compound 0.03162 µM) was found to be 1.05; in the experiment with Vemurafenib + Trametinib (first compound 0.1 µM) it was 0.944; with Vemurafenib + Trametinib (first compound 0.3162 µM) it was 0.808; in the experiment with Vemurafenib + Trametinib (first compound 1 µM), 1.09; with OSI-027 + Alpelisib (first compound 0.01 µM), 1.05; with OSI-027 + Alpelisib (first compound 0.03162 µM), 1.1. Besides, the relative viability with OSI-027 + Alpelisib (first compound 0.1 µM) was determined as 0.749; in the experiment with OSI-027 + Alpelisib (first compound 0.3162 µM), 0.679; in the experiment with OSI-027 + Alpelisib (first compound 1 µM), 0.389; with Alpelisib + Luminespib (first compound 0.04 µM) it was 0.752; with Alpelisib + Luminespib (first compound 0.1265 µM), 0.744; in the experiment with Alpelisib + Luminespib (first compound 0.4 µM), 0.985. In addition, the relative viability was 0.559 with Alpelisib + Luminespib (first compound 1.265 µM); 0.664 in the experiment with Alpelisib + Luminespib (first compound 4 µM); 0.84 with Alpelisib + Lapatinib (first compound 0.04 µM); 0.538 with Alpelisib + Lapatinib (first compound 0.1265 µM); 0.876 in the experiment with Alpelisib + Lapatinib (first compound 0.4 µM); 0.683 with Alpelisib + Lapatinib (first compound 1.265 µM). For the same cell line, the relative viability in the experiment with Alpelisib + Lapatinib (first compound 4 µM) is 0.869.
With BEN, the relative viability with Vemurafenib + Trametinib (first compound 0.03162 µM) turned out to be 0.935; with Vemurafenib + Trametinib (first compound 0.1 µM), 1.01; with Vemurafenib + Trametinib (first compound 0.3162 µM) it was 0.638; with Vemurafenib + Trametinib (first compound 1 µM), 0.811; in the experiment with OSI-027 + Alpelisib (first compound 0.01 µM), 1.02; with OSI-027 + Alpelisib (first compound 0.03162 µM) it was 0.695. Also, the relative viability in the experiment with OSI-027 + Alpelisib (first compound 0.1 µM) was found to be 0.67; with OSI-027 + Alpelisib (first compound 0.3162 µM) it was 0.447; with OSI-027 + Alpelisib (first compound 1 µM) it was 0.319; with Alpelisib + Luminespib (first compound 0.04 µM), 0.341; in the experiment with Alpelisib + Luminespib (first compound 0.1265 µM) it was 0.101; with Alpelisib + Luminespib (first compound 0.4 µM), 0.474. Also, the relative viability with Alpelisib + Luminespib (first compound 1.265 µM) came to 0.332; with Alpelisib + Luminespib (first compound 4 µM), 0.159; with Alpelisib + Lapatinib (first compound 0.04 µM) it was 0.715; in the experiment with Alpelisib + Lapatinib (first compound 0.1265 µM) it was 0.618; with Alpelisib + Lapatinib (first compound 0.4 µM) it was 0.88; in the experiment with Alpelisib + Lapatinib (first compound 1.265 µM) it was 0.688. Also, the relative viability with Alpelisib + Lapatinib (first compound 4 µM) was 0.708.
Regarding NCI-H647, the relative viability in the experiment with Vemurafenib + Trametinib (first compound 0.03162 µM) stood at 0.496; in the experiment with Vemurafenib + Trametinib (first compound 0.1 µM), 0.435; with Vemurafenib + Trametinib (first compound 0.3162 µM) it was 0.37; with Vemurafenib + Trametinib (first compound 1 µM), 0.488; with OSI-027 + Alpelisib (first compound 0.01 µM) it was 1.15; with OSI-027 + Alpelisib (first compound 0.03162 µM), 1.26. The relative viability with OSI-027 + Alpelisib (first compound 0.1 µM) amounted to 0.914; with OSI-027 + Alpelisib (first compound 0.3162 µM) it was 0.699; with OSI-027 + Alpelisib (first compound 1 µM), 0.376; with Alpelisib + Luminespib (first compound 0.04 µM) it was 0.256; with Alpelisib + Luminespib (first compound 0.1265 µM) it was 0.203; with Alpelisib + Luminespib (first compound 0.4 µM), 0.157. In addition, the relative viability in the experiment with Alpelisib + Luminespib (first compound 1.265 µM) was 0.117; with Alpelisib + Luminespib (first compound 4 µM), 0.168; with Alpelisib + Lapatinib (first compound 0.04 µM) it was 0.959; in the experiment with Alpelisib + Lapatinib (first compound 0.1265 µM), 1.14; with Alpelisib + Lapatinib (first compound 0.4 µM) it was 1.35; with Alpelisib + Lapatinib (first compound 1.265 µM), 0.99. Also, the relative viability with Alpelisib + Lapatinib (first compound 4 µM) worked out at 0.756.
In the case of NCI-H661, the relative viability amounted to 0.522 with Vemurafenib + Trametinib (first compound 0.03162 µM); 0.475 with Vemurafenib + Trametinib (first compound 0.1 µM); 0.517 with Vemurafenib + Trametinib (first compound 0.3162 µM); 0.606 with Vemurafenib + Trametinib (first compound 1 µM); 0.482 in the experiment with OSI-027 + Alpelisib (first compound 0.01 µM); 0.671 in the experiment with OSI-027 + Alpelisib (first compound 0.03162 µM). Moreover, the relative viability came out at 0.41 with OSI-027 + Alpelisib (first compound 0.1 µM); 0.5 in the experiment with OSI-027 + Alpelisib (first compound 0.3162 µM); 0.33 in the experiment with OSI-027 + Alpelisib (first compound 1 µM); 0.979 with Alpelisib + Luminespib (first compound 0.04 µM); 0.969 in the experiment with Alpelisib + Luminespib (first compound 0.1265 µM); 1.02 with Alpelisib + Luminespib (first compound 0.4 µM). The relative viability came out at 0.928 in the experiment with Alpelisib + Luminespib (first compound 1.265 µM); 0.968 with Alpelisib + Luminespib (first compound 4 µM); 0.471 with Alpelisib + Lapatinib (first compound 0.04 µM); 0.475 with Alpelisib + Lapatinib (first compound 0.1265 µM); 0.525 in the experiment with Alpelisib + Lapatinib (first compound 0.4 µM); 0.383 in the experiment with Alpelisib + Lapatinib (first compound 1.265 µM). In addition, the relative viability with Alpelisib + Lapatinib (first compound 4 µM) came to 0.361.
Regarding HCC-44, the relative viability amounted to 1.01 with Vemurafenib + Trametinib (first compound 0.03162 µM); 1 with Vemurafenib + Trametinib (first compound 0.1 µM); 1.02 in the experiment with Vemurafenib + Trametinib (first compound 0.3162 µM); 1.14 in the experiment with Vemurafenib + Trametinib (first compound 1 µM); 0.795 with OSI-027 + Alpelisib (first compound 0.01 µM); 0.775 with OSI-027 + Alpelisib (first compound 0.03162 µM). For the same cell line, the relative viability came to 0.738 in the experiment with OSI-027 + Alpelisib (first compound 0.1 µM); 0.574 in the experiment with OSI-027 + Alpelisib (first compound 0.3162 µM); 0.215 in the experiment with OSI-027 + Alpelisib (first compound 1 µM); 1.11 with Alpelisib + Luminespib (first compound 0.04 µM); 1.08 with Alpelisib + Luminespib (first compound 0.1265 µM); 1.2 with Alpelisib + Luminespib (first compound 0.4 µM). Further, the relative viability with Alpelisib + Luminespib (first compound 1.265 µM) came out at 0.614; with Alpelisib + Luminespib (first compound 4 µM), 0.84; with Alpelisib + Lapatinib (first compound 0.04 µM) it was 1.12; with Alpelisib + Lapatinib (first compound 0.1265 µM), 1.02; with Alpelisib + Lapatinib (first compound 0.4 µM) it was 1.05; in the experiment with Alpelisib + Lapatinib (first compound 1.265 µM), 0.877. Moreover, the relative viability with Alpelisib + Lapatinib (first compound 4 µM) stood at 0.893.
Regarding NCI-H1792, the relative viability in the experiment with Vemurafenib + Trametinib (first compound 0.03162 µM) worked out at 0.495; with Vemurafenib + Trametinib (first compound 0.1 µM), 0.482; with Vemurafenib + Trametinib (first compound 1 µM), 0.548; with OSI-027 + Alpelisib (first compound 0.01 µM) it was 1.07; with OSI-027 + Alpelisib (first compound 0.03162 µM) it was 0.517; with OSI-027 + Alpelisib (first compound 0.1 µM), 0.623. Moreover, the relative viability in the experiment with OSI-027 + Alpelisib (first compound 0.3162 µM) was 0.495; with OSI-027 + Alpelisib (first compound 1 µM), 0.188; with Alpelisib + Luminespib (first compound 0.04 µM), 0.338; with Alpelisib + Luminespib (first compound 0.1265 µM) it was 0.5; with Alpelisib + Luminespib (first compound 0.4 µM), 0.576; with Alpelisib + Luminespib (first compound 1.265 µM) it was 0.326. Further, the relative viability with Alpelisib + Luminespib (first compound 4 µM) was found to be 0.323; with Alpelisib + Lapatinib (first compound 0.04 µM), 0.923; with Alpelisib + Lapatinib (first compound 0.1265 µM), 0.796; with Alpelisib + Lapatinib (first compound 0.4 µM), 0.863; with Alpelisib + Lapatinib (first compound 1.265 µM), 0.773; in the experiment with Alpelisib + Lapatinib (first compound 4 µM) it was 0.532.

The values above are taken from the supplement of paper PMC10307832.
